Where “and” joins values, the source holds several entries; their conditions need not be identical. Equal entries are not always repeated.
Target: T1, 5-hydroxytryptamine receptor 1A (Rattus norvegicus, UniProt P19327)
T1 sequence (P19327 whole entry): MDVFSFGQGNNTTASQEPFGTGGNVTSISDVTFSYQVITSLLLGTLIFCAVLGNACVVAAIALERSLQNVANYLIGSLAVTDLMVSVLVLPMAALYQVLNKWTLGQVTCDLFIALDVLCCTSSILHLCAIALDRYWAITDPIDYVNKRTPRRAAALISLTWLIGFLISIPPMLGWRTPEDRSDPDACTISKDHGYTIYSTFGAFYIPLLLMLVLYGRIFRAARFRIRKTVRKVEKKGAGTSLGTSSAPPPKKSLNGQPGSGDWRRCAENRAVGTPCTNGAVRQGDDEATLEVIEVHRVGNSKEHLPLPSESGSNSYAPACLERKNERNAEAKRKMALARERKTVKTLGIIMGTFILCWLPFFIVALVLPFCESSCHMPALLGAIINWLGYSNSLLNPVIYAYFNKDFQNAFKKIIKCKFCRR

| Compound | Ki |
| --- | --- |
| CN(C)CCCN1c2ccccc2CCc2ccccc21 | > 10 µM |
| NCCc1ccc(O)c(O)c1 | > 10 µM |
| CN1C2CCC1CC(OC(c1ccccc1)c1ccccc1)C2 (stereo not given) | > 10 µM |
| NCCc1c[nH]c2ccccc12 [1H-indole-3-ethanamine] | 3.72 µM and > 10 µM |
| COc1ccc2[nH]cc(CCN(C)C)c2c1 [3-(2-DIMETHYLAMINOETHYL)-5-METHOXYINDOLE] | 0.0398 µM and 0.288 µM |
| O=C(c1ccc(F)cc1)C1CCN(CCn2c(=O)[nH]c3ccccc3c2=O)CC1 [3-(2-{4-[(4-fluorophenyl)carbonyl]piperidin-1-yl}ethyl)-1,2,3,4-tetrahydroquinazoline-2,4-dione] | 4.17 µM and > 10 µM |
| CN(C)CCCSc1ccccc1NC(=O)/C=C/c1ccccc1 [CINANSERIN] | 1.1 µM and > 10 µM |
| CN1C[C@H](CNC(=O)OCc2ccccc2)C[C@@H]2c3cccc4c3c(cn4C)C[C@H]21 [METERGOLINE] | 0.0347 µM and 0.245 µM |
| CC(CN1c2ccccc2Sc2ccccc21)N(C)C (stereo not drawn) [N,N,alpha-trimethyl-10H-phenothiazine-10-ethanamine] | > 10 µM |
| CN1CCC(=C2c3ccccc3CCc3sccc32)CC1 [NSC_27400] | 2.19 µM and 6.17 µM |

Source: BindingDB's records for doi:10.1038/305140a0 (College of France, 1983)
